Positions of bridges follow the written chain, without caps; N, C: chain ends. No end group written: not given here.
Tests used:
osteoclasts = assay: Osteoclast Pitting Assay; assay type: cell-based; settings: neonatal rat osteoclasts on bovine cortical bone slices
Protocol: The assay is conduct ed as described in Murrills and Dempster (1990) Bone 11:333-344. Briefly, 4×4×0.2 mm slices of devitalized bovine cortical bone are numbered, placed in the wells of 96-well culture plates and wetted with 100 ul of Medium 199 containing Hanks salts, 10 mM HEPES, pH 7.0 (Medium 199/Hanks). Bone cell suspensions containing osteoclasts are prepared by mincing the long bones of neonatal rats (Sprague-Dawley , 4-6 days old) in Medium 199/Hanks. 100 uL of the suspension are then plated onto each slice and incubated 30 minutes to allow osteoclasts to adhere. The slices are rinsed to remove non-adherent cells and incubated 24 h in Medium 199 containing Earle's salts, 10 mM HEPES and 0.7 g/L NaHCO3, which equilibrates at pH 6.9 in a 5% CO2 atmosphere. At this pH the adherent osteoclasts excavate an adequate number of resorption pits for assay purposes. Slices are fixed in 2.5% glutaraldehyde and osteoclasts counted following tartrate-resistant acid phosphatase staining. […] Resorption pits are quantified by manually counting.
The experiments are conducted according to a block design with osteoclasts from each animal exposed to each treatment. […] Several parameters are recorded on a “per slice” basis: number of pits, number of osteoclasts, number of pits per osteoclast, number of fibroblast-like bone cells. […] IC50s are calculated for active compounds using dose-response curves.

[1] = target: Vitronectin Receptor (αvβ3) (Homo sapiens, UniProt P05106+P06756); assay: Vitronectin Receptor (αvβ3) Binding Assay; settings: at 100 μM; 125I-Echistatin, 512P5 cell membranes
Vitronectin Receptor (αvβ3), sequence (P06756 31-889 limits assumed): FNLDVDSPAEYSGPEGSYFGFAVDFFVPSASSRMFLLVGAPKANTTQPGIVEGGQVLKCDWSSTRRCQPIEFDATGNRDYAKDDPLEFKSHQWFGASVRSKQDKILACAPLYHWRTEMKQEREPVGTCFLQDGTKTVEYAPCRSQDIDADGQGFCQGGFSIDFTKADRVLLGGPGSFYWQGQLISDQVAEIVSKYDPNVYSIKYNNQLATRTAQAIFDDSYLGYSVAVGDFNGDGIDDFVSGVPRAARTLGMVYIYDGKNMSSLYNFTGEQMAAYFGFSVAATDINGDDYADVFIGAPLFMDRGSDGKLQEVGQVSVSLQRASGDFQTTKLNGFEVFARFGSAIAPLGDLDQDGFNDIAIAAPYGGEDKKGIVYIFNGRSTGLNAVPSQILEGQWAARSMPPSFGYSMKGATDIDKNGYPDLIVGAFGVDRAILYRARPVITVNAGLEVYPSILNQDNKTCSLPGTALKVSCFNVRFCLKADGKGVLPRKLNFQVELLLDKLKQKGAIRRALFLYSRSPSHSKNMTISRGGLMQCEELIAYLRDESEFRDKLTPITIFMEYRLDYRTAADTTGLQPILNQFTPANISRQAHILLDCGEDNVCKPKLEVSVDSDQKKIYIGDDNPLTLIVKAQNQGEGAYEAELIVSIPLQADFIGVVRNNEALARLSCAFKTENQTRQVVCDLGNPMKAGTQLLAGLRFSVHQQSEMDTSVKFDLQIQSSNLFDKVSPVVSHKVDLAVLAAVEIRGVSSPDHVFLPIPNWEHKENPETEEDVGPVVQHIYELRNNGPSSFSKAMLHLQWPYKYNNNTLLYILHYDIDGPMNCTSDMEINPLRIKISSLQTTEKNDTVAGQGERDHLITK
Vitronectin Receptor (αvβ3), sequence (P06756 891-1048 limits assumed): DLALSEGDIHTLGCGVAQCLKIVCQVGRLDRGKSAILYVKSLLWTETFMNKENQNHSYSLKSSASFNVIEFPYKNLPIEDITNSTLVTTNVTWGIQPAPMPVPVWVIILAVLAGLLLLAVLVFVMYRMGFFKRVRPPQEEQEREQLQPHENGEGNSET
Vitronectin Receptor (αvβ3), sequence (P05106 27-788): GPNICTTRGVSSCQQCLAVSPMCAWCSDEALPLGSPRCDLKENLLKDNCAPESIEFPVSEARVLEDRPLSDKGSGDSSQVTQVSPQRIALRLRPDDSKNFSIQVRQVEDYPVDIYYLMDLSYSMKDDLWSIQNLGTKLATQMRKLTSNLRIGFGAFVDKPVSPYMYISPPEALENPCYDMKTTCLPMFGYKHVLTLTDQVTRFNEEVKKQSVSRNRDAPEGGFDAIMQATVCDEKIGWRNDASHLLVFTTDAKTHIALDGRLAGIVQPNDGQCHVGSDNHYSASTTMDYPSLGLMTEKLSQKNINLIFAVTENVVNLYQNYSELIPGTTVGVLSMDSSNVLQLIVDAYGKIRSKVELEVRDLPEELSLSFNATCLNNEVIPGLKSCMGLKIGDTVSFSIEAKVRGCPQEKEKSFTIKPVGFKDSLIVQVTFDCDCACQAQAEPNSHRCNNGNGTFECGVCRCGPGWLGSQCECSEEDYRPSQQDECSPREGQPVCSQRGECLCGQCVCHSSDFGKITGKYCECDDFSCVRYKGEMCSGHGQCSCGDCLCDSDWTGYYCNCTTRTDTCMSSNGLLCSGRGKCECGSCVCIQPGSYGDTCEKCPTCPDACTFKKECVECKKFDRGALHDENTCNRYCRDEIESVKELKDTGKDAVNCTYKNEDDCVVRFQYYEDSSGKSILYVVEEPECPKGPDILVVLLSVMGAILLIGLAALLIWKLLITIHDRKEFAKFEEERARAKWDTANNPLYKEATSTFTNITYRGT

| Substance | osteoclast inhibitory activity (osteoclasts) | ability to inhibit avb3 binding [1] |
| --- | --- | --- |
| Calcitonin: reference compound of the osteoclast pitting assay; used as anti-resorptive in the clinic (CGNLSTCMLGTYTQDLNKFHTFPQTSIGVGAP-NH2; disulfide 1-7; ends not checked; UniProt P01257 85-116, looked up) | significant osteoclast inhibitory activity |  |
| GRGESP: reference peptide, structure given by standard single letter designation for amino acids |  | inactive at 100 μM |

— patent publication US6586187B1, “Methods for solid phase combinatorial synthesis of integrin inhibitors” (Wyeth, priority 1999, dated 2003)
